From US8722578B2, “Spiroheterocyclic pyrrolidinedione herbicidal compositions” (Syngenta Participations AG, priority 2008, dated 2014)

Experiments:
[1] = test system: Alopecurus myosuroides (ALOMY); assay: Example B pre-emergence herbicidal activity, glasshouse pot test; type: in vivo; conditions: 312 h, first table (headed Post-Emergence, taken as pre-emergence), rate 1000 g/ha, evaluated after 13 days, read-out: ALOMY activity (100=total damage to plant; 0=no damage to plant)
Protocol: (§1) Seeds of a variety of test species are sown in standard soil in pots. After cultivation for one day (pre-emergence) or after 8 days cultivation (post-emergence) under controlled conditions in a glasshouse (at 24/16° C., day/night; 14 hours light; 65% humidity), the plants are sprayed with an aqueous spray solution derived from the formulation of the technical active ingredient in acetone/water (50:50) solution containing 0.5% Tween 20 (polyoxyethelyene sorbitan monolaurate, CAS RN 9005-64-5). The test plants are then grown in a glasshouse under controlled conditions in a glasshouse (at 24/16° C., day/night; 14 hours light; 65% humidity) and watered twice daily. After 13 days for pre and post-emergence, the test is evaluated (100=total damage to plant; 0=no damage to plant). Test Plants: Setaria faberi (SETFA), Alopecurus myosuroides (ALOMY), Echinochloa crus-galli (ECHCG), Avena fatua (AVEFA)

Setaria faberi (SETFA) [2] = assay: as above; type: in vivo; conditions: 312 h, first table (headed Post-Emergence, taken as pre-emergence), rate 1000 g/ha, evaluated after 13 days, read-out: SETFA activity (100=total damage to plant; 0=no damage to plant)
Protocol: as §1

[3] = test system: Echinochloa crus-galli (ECHCG); assay: as above; type: in vivo; conditions: 312 h, first table (headed Post-Emergence, taken as pre-emergence), rate 1000 g/ha, evaluated after 13 days, read-out: ECHCG activity (100=total damage to plant; 0=no damage to plant)
Protocol: as §1

Avena fatua (AVEFA) [4] = assay: as above; type: in vivo; conditions: 312 h, first table (headed Post-Emergence, taken as pre-emergence), rate 1000 g/ha, evaluated after 13 days, read-out: AVEFA activity (100=total damage to plant; 0=no damage to plant)
Protocol: as §1

[5] = test system: Alopecurus myosuroides (ALOMY); assay: Example B post-emergence herbicidal activity, glasshouse pot test; type: in vivo; conditions: 312 h, evaluated after 13 days, read-out: ALOMY post-emergence activity (100=total damage to plant; 0=no damage to plant); for pest or weed control at 1000 g/ha: rate 1000 g/ha; for pest or weed control at 250 g/ha: rate 250 g/ha
Protocol: as §1

Setaria faberi (SETFA) [6] = assay: as above; type: in vivo; conditions: 312 h, evaluated after 13 days, read-out: SETFA post-emergence activity (100=total damage to plant; 0=no damage to plant); for pest or weed control at 1000 g/ha: rate 1000 g/ha; for pest or weed control at 250 g/ha: rate 250 g/ha
Protocol: as §1

[7] = test system: Echinochloa crus-galli (ECHCG); assay: as above; type: in vivo; conditions: 312 h, evaluated after 13 days, read-out: ECHCG post-emergence activity (100=total damage to plant; 0=no damage to plant); for pest or weed control at 1000 g/ha: rate 1000 g/ha; for pest or weed control at 250 g/ha: rate 250 g/ha
Protocol: as §1

Avena fatua (AVEFA) [8] = assay: as above; type: in vivo; conditions: 312 h, evaluated after 13 days, read-out: AVEFA post-emergence activity (100=total damage to plant; 0=no damage to plant); for pest or weed control at 1000 g/ha: rate 1000 g/ha; for pest or weed control at 250 g/ha: rate 250 g/ha
Protocol: as §1

melting point | SMILES | pest or weed control at 1000 g/ha [1] | pest or weed control at 1000 g/ha (Setaria faberi (SETFA) [2]) | pest or weed control at 1000 g/ha [3] | pest or weed control at 1000 g/ha (Avena fatua (AVEFA) [4]) | pest or weed control at 1000 g/ha [5] | pest or weed control at 1000 g/ha (Setaria faberi (SETFA) [6]) | pest or weed control at 1000 g/ha [7] | pest or weed control at 1000 g/ha (Avena fatua (AVEFA) [8]) | pest or weed control at 250 g/ha [5] | pest or weed control at 250 g/ha (Setaria faberi (SETFA) [6]) | pest or weed control at 250 g/ha [7] | pest or weed control at 250 g/ha (Avena fatua (AVEFA) [8])
– | CCON1CCC2(CC1)NC(=O)C(c1c(C)cc(C)cc1C)C2=O (stereo not shown) [Compound T5] | 100% | 90% | 100% | 90% | 90% | 90% | 100% | 60% | – | – | – | –
260 to 264 °C | CON1CCC2(CC1)NC(=O)C(c1c(C)cc(Br)cc1C)C2=O (stereo not shown) [Compound T12] | 70% | 90% | 20% | 80% | 80% | 90% | 80% | 90% | – | – | – | –
257 to 260 °C | CON1CCC2(CC1)NC(=O)C(c1c(Cl)cccc1Cl)C2=O (stereo not shown) [Compound T3] | 40% | 80% | 0% | 0% | 60% | 70% | 0% | 0% | – | – | – | –
– | CCON1CCC2(CC1)NC(=O)C(c1c(C)cc(C)cc1C)=C2OC(=O)C(C)(C)C [Compound P25, 2,2-dimethyl-propionic acid 8-ethoxy-2-oxo-3-(2,4,6-trimethyl-phenyl)-1,8-diaza-spiro[4.5]dec-3-en-4-yl ester] | 60% | 60% | 80% | 0% | 50% | 0% | 40% | 0% | – | – | – | –
– | CON1CCC2(CC1)NC(=O)C(c1cc(C3CC3)c(C)cc1C)C2=O (stereo not shown) [Compound T16, 3-(5-cyclopropyl-2,4-dimethyl-phenyl)-4-hydroxy-8-methoxy-1,8-diaza-spiro[4.5]dec-3-en-2-one] | – | – | – | – | – | – | – | – | 60% | 80% | 60% | 30%
203 to 205 °C | C=CCOC(=O)OC1=C(c2c(Cl)cccc2Cl)C(=O)NC12CCN(OC)CC2 [Compound P44] | 20% | 30% | 30% | 10% | 50% | 50% | 0% | 0% | – | – | – | –
111 to 113 °C | COc1ccc(COC2=C(c3ccc(Cl)cc3Cl)C(=O)NC23CCN(OC)CC3)cc1 [Compound P32] | – | – | – | – | 70% | 90% | 80% | 60% | – | – | – | –
207 to 211 °C | C=CCOC(=O)OC1=C(c2c(C)cc(Br)cc2C)C(=O)NC12CCN(OC)CC2 [Compound P48] | 100% | 90% | 80% | 80% | 80% | 80% | 80% | 10% | – | – | – | –
185 to 187 °C | CCOC(=O)OC1=C(c2c(C)cc(Br)cc2C)C(=O)NC12CCN(OC)CC2 [Compound P49] | 80% | 80% | 70% | 80% | 90% | 80% | 80% | 80% | – | – | – | –
167 to 169 °C | CON1CCC2(CC1)NC(=O)C(c1ccc(Br)cc1Cl)C2=O (stereo not shown) [Compound T21] | – | – | – | – | – | – | – | – | 80% | 80% | 90% | 60%
174 to 175 °C | CCOC(=O)OC1=C(c2c(C)cc(C)cc2C)C(=O)NC12CCN(OCC)CC2 [Compound P22] | 90% | 90% | 100% | 90% | 90% | 70% | 100% | 60% | – | – | – | –
201 to 203 °C | CON1CCC2(CC1)NC(=O)C(c1cc(C)ccc1C)=C2OC(=O)C(C)C [Compound P34] | 30% | 20% | 20% | 40% | 10% | 60% | 40% | 0% | – | – | – | –
171 to 172 °C | CON1CCC2(CC1)NC(=O)C(c1ccc(Cl)cc1Cl)=C2OC(=O)N(C)CCC#N [Compound P39] | 0% | 60% | 30% | 0% | 10% | 50% | 40% | 0% | – | – | – | –
218 to 219 °C | CON1CCC2(CC1)NC(=O)C(c1cc(C3CC3)c(C)cc1C)=C2OC(=O)C(C)(C)C [Compound P56] | – | – | – | – | – | – | – | – | 20% | 60% | 50% | 40%
– | CON1CCC2(CC1)NC(=O)C(c1c(C)cc(C)cc1C)C2=O (stereo not shown) [Compound T4] | 90% | 90% | 100% | 100% | 100% | 100% | 100% | 90% | – | – | – | –
168 to 169 °C | CON1CCC2(CC1)NC(=O)C(c1cc(-c3ccc(Cl)cc3)c(C)cc1C)C2=O (stereo not shown) [Compound T15] | – | – | – | – | – | – | – | – | 60% | 90% | 90% | 60%
> 250 °C | CON1CCC2(CC1)NC(=O)C(c1c(C)cc(-c3ccc(Cl)cc3)cc1C)=C2OC(=O)C(C)(C)C [Compound P71] | – | – | – | – | – | – | – | – | 0% | 60% | 30% | 20%
201 to 203 °C | CCOC(=O)OC1=C(c2ccc(Br)cc2C)C(=O)NC12CCN(OC)CC2 [Compound P68] | – | – | – | – | – | – | – | – | 70% | 90% | 90% | 60%
129 to 131 °C | CCN(CC)C(=O)OC1=C(c2cc(C)ccc2C)C(=O)NC12CCN(OC)CC2 [Compound P10] | – | – | – | – | – | – | – | – | – | – | – | –
187 to 189 °C | CON1CCC2(CC1)NC(=O)C(c1ccc(Br)cc1C)C2=O (stereo not shown) [Compound T22] | – | – | – | – | – | – | – | – | 60% | 80% | 80% | 40%
